One assay deals with T1, G2 EPSPS (Pseudomonas fluorescens, UniProt A1Z0H6).
T1 construct: gene aroA
In words: Pi release (Lanzetta reagent, […] nm); Km(obs) of PEP versus glyphosate. Type of assay: biochemical. The settings on record: 1 mM S3P, varied PEP, 50 mM HEPES-NaOH pH 7.0, 100 mM KCl, 2 mM DTT, 25 °C; competitive with PEP; read-out: K i (glyphosate; μM).

For a further assay, the target named is T2, A1501 EPSPS (Stutzerimonas stutzeri, UniProt A4VLZ3).
T2 construct: gene aroA
The assay is described as above. Type of assay: biochemical. To be noted: 1 mM S3P, varied PEP, 50 mM HEPES-NaOH pH 7.0, 100 mM KCl, 2 mM DTT, 25 °C; competitive with PEP; read-out: K i (glyphosate; μM).

In assay [1] the target is T3, AM79 EPSPS.
T3 construct: gene aroA; aroA in pET-28a, stop codon removed so two His tags (N- and C-terminal), E. coli Rosetta (DE3), Ni-NTA purified; printed residues Ala107, Phe114, Ala355, His356, Glu357
The assay is described as above. Type of assay: biochemical, uncultured soil bacterium. The settings on record: 1 mM S3P, varied PEP, 50 mM HEPES-NaOH pH 7.0, 100 mM KCl, 2 mM DTT, 25 °C; competitive with PEP; read-out: K i (glyphosate; μM).

The test system of assay [2] is T3, AM79 EPSPS. In words: Pi release (Lanzetta reagent, […] nm); Michaelis-Menten fit. It is filed as biochemical, uncultured soil bacterium. The settings on record: 1 mM S3P, no glyphosate, 50 mM HEPES-NaOH pH 7.0, 100 mM KCl, 2 mM DTT, 25 °C; read-out: K m (PEP; μM).

The record followed here is PMC3371024, “A Novel 5-Enolpyruvylshikimate-3-Phosphate Synthase Shows High Glyphosate Tolerance in Escherichia coli and Tobacco Plants” (PLoS ONE, 2012).

Take `O=C(O)CNCP(=O)(O)O` [glyphosate, N-phosphonomethyl glycine]: the Ki at G2 EPSPS turned out to be 44.7 ± 5.2 µM; on A1501 EPSPS it was 467 ± 30.2 µM; on AM79 EPSPS [1], 154 ± 4.06 µM.
For `C=C(OP(=O)(O)O)C(=O)O` [PEP], in the assay on AM79 EPSPS [2], the Km was 14.59 ± 0.11 µM.
